# Assay results from patent US20250282817A1, “COMPOUNDS FOR DELIVERING GLUTATHIONE TO A TARGET AND METHODS OF MAKING AND USING THE SAME” (priority 2016, published 2025).
# Experiments:
# hepatocytes = experiment: Menadione toxicity to hepatocytes from young and old rats (percent viability, LC50); format: cell-based, rat
# Excerpt: (§1) Hepatocytes isolated from an old rat have 60% less mitochondrial GSH than that seen in young adult animals. In this example, menadione was used as a redox cycler, to stress mitochondria in hepatocytes, as GSH-dependent mechanisms can be involved its detoxification. […] The increased vulnerability to menadione has been linked to the loss of GSH resulting from the decline in GSH synthesis capacity.
# (§2) Menadione treatment alone served as the positive control.
# [1] = as above; format: cell-based, rat; details: rat
# Excerpt: as §1, §2
# cells = experiment: Oxygen consumption rate (OCR) after 3HP-dependent GSH loss (FIG. 6); format: cell-based
# [2] = test system: hepatocytes from aged rats; details: triphenylphosphonium alone
# Procedure: Menadione treatment alone served as the positive control. Viability in untreated hepatocytes also was measured over two hours.
# mice = experiment: Effect of mitoGSH in animals: i.p. injection of TPP-GSSG, 48 hour observation, liver chemistry profile; format: in vivo; details: 3.8 mg/kg i.p.
# Procedure: Three seven-month-old female non-transgenic mice (approximately 30 g each) were injected i.p. with 3.8 mg/kg TPP-GSSG in 100 μL/mouse. TPP-GSSG was initially solubilized in DMF and later diluted in millipure water to 5.3% (v/v) dimethylformamide for injection. […] All mice gained weight (0.1 g-2.3 g) over the 48 hour period. Blood was collected via brachial cut, spun down to collect plasma and then delivered to OSU Veterinary Diagnostic Laboratory for a small animal liver chemistry profile.
compound,measurement,setting,value
CC1=CC(=O)c2ccccc2C1=O [menadione],CC50,hepatocytes; hepatocytes from old rats,232 µM
same,CC50,hepatocytes; hepatocytes from young rats,401 µM
same,CC50,"[1]; isolated hepatocytes from old rats, hepatocytes from old rats",300 µM
same,CC50,"[1]; isolated hepatocytes from young rats, hepatocytes from young rats",~500 µM
"C=CC(O)CC(=O)O (stereo not drawn) [3HP, 3-hydroxy-4-pentenoate]","basal respiration, ATP turnover, proton leak, non-mitochondrial respiration (OCR)",cells; 3HP-dependent GSH loss,does not alter
same,respiratory capacity (OCR),cells; higher levels of 3HP treatment,increasingly lost
Triphenylphosphonium,effect on hepatocyte viability,[2],did not affect viability
Triphenylphosphonium glutathione disulfide tetraethyl ester [TPP-GSSG],health and activity of mice,"mice; 48 hours, female non-transgenic mice",no detrimental effects observed
same,small animal liver chemistry profile (plasma),mice; after 48 hours,No liver damage or abnormalities were detected
